Where two headings read alike, the source gives them in different places.
Key:
Escherichia coli NIHJ = assay: Minimal inhibitory concentration, standard agar dilution method (Escherichia coli); assay type: cell-based
Experimental: (§1) Minimal inhibitory concentration (MIC) was determined by the standard agar dilution method of the Japan Society of Chemotherapy.
(§2) The compounds described in Examples 1, 2 and 5 were dissolved in sterilized water; the compound described in Example 4 was dissolved in acetone-water (1:1); and the control compounds, cephaloglycin and cephalexin monohydrate, were dissolved in a 3% sodium hydrogen carbonate solution.
(§3) Serial two-fold dilutions were made from the above solutions.
(§4) One-ml aliquots of each dilution were mixed with 9 ml of Heart influsion agar in petri-dishes to make agar plates containing the compound at serially diluted concentrations. After agar hardened, plates were put in an incubator at 37° C. for 1.5-2 hours with the lids slightly open to evaporate acetone off the plates.
(§5) Test organisms were grown for 18 hours at 37° C. in Trypticase Soy broth and diluted in saline to approximately 10^6 colony forming units per ml. A loopful of each cell suspension was applied on the agar plate mentioned above and the plates were incubated for 18 hours at 37° C. before MIC was determined.
(§6) MIC values of the compounds described in Examples 1, 2 and 5 were determined as their sodium salts and the compound described in Example 4 was determined as a free carboxylic acid.

Proteus morganii EP-14 = assay: Minimal inhibitory concentration, standard agar dilution method (Proteus morganii); assay type: cell-based; details: Morganella morganii
Experimental: as §1, §2, §3, §4, §5, §6

[1] = system: Klebsiella pneumoniae EK-6; assay: Minimal inhibitory concentration, standard agar dilution method (Klebsiella pneumoniae); assay type: cell-based
Experimental: as §1, §2, §3, §4, §5, §6

[2] = system: Pseudomonas aeruginosa EP-172; assay: Minimal inhibitory concentration, standard agar dilution method (Pseudomonas aeruginosa); assay type: cell-based
Experimental: as §1, §2, §3, §4, §5, §6

[3] = system: Staphylococcus aureus 209P; assay: Minimal inhibitory concentration, standard agar dilution method (Staphylococcus aureus); assay type: cell-based
Experimental: as §1, §2, §3, §4, §5, §6

[4] = system: Serratia marcescens ES-75; assay: Minimal inhibitory concentration, standard agar dilution method (Serratia marcescens); assay type: cell-based
Experimental: as §1, §2, §3, §4, §5, §6

[5] = acute toxicity test (mouse, oral); details: in vivo
From the text: Moreover, it has been confirmed that the compounds of this invention show low toxicity in the toxicity test. For example, the acute toxicity values [LD50 (mouse, oral)] for the following compounds were over 5 g/kg: […]

[6] = Escherichia coli NIHJ, agar dilution, 18 hours at 37° C., Examples 1, 2, 5 as sodium salts, Example 4 as free acid, read-out: MIC
[7] = EP14, Proteus morganii EP-14, agar dilution, 18 hours at 37° C., Examples 1, 2, 5 as sodium salts, Example 4 as free acid, read-out: MIC
[8] = EK6, Klebsiella pneumoniae EK-6, agar dilution, 18 hours at 37° C., Examples 1, 2, 5 as sodium salts, Example 4 as free acid, read-out: MIC
[9] = EP172, Pseudomonas aeruginosa EP-172, agar dilution, 18 hours at 37° C., Examples 1, 2, 5 as sodium salts, Example 4 as free acid, read-out: MIC
[10] = Staphylococcus aureus 209P, agar dilution, 18 hours at 37° C., Examples 1, 2, 5 as sodium salts, Example 4 as free acid, read-out: MIC
[11] = ES75, Serratia marcescens ES-75, agar dilution, 18 hours at 37° C., Examples 1, 2, 5 as sodium salts, Example 4 as free acid, read-out: MIC

Row | Compound | MIC (Escherichia coli NIHJ; [6]) [µg/mL] | MIC (Proteus morganii EP-14; [7]) [µg/mL] | MIC [1, 8] [µg/mL] | MIC [2, 9] [µg/mL] | MIC [3, 10] [µg/mL] | MIC [4, 11] [µg/mL] | MIC (Escherichia coli NIHJ; Escherichia coli, 18 h) [µg/mL] | MIC (Proteus morganii EP-14; EP14, 18 h) [µg/mL] | MIC ([1]; Klebsiella pneumoniae, EK6, 18 h) [µg/mL] | MIC ([2]; Pseudomonas aeruginosa, EP172, 18 h) [µg/mL] | MIC ([3]; Staphylococcus aureus, 209P, 18 h) [µg/mL] | MIC ([4]; Serratia marcescens, ES75, 18 h) [µg/mL] | LD50 [5] [mg/kg]
1 | CC(=O)OCC1=C(C(=O)O)N2C(=O)[C@@H](NC(=O)[C@H](NC(=O)c3coc4c(OC(C)=O)c(OC(C)=O)ccc4c3=O)c3ccccc3)[C@H]2SC1 [Example 4, 7β-[D-2-(7,8-Diacetoxychromone-3-carboxamido)-2-phenylacetamido]-3-acetoxymethyl-3-cephem-4-carboxylic acid] | 0.8 | 3.13 | ≤ 0.1 | 1.56 | 1.56 | 0.8 |  |  |  |  |  |  | 
2 | CC1=C(C(=O)O)N2C(=O)[C@@H](NC(=O)[C@H](N)c3ccccc3)[C@H]2SC1 [Cephalexin mono-hydrate, cephalexin monohydrate, reference compound] |  |  |  |  |  |  | 6.25 | > 100 | 3.13 | > 100 | 1.56 | > 100 | 
3 | CC(=O)OCC1=C(C(=O)O)N2C(=O)[C@@H](NC(=O)[C@H](NC(=O)c3coc4cc(OC(C)=O)c(OC(C)=O)cc4c3=O)c3ccccc3)[C@H]2SC1 [Example 1, 7β-[D-2-(6,7-Diacetoxychromone-3-carboxamido)-2-phenylacetamido]-3-acetoxymethyl-3-cephem-4-carboxylic acid] | 1.56 | 50 | ≤ 0.1 | 0.8 | 3.13 | 0.4 |  |  |  |  |  |  | 
4 | CC(=O)OCC1=C(C(=O)O)N2C(=O)[C@@H](NC(=O)[C@H](N)c3ccccc3)[C@H]2SC1 [Cephaloglycin, cephaloglycin, reference compound] | 3.13 | 25 | 1.56 | > 100 | 0.8 | > 100 |  |  |  |  |  |  | 
5 | CC(=O)OCC1=C(C(=O)O)N2C(=O)[C@@H](NC(=O)[C@H](NC(=O)c3coc4cc(O)c(O)cc4c3=O)c3ccccc3)[C@H]2SC1 [Example 2, 7β-[D-2-(6,7-Dihydroxychromone-3-carboxamido)-2-phenylacetamido]-3-acetoxymethyl-3cephem-4-carboxylic acid] | 0.8 | 12.5 | ≤ 0.1 | 0.8 | 1.56 | 0.2 |  |  |  |  |  |  | > 5000
6 | CC(=O)OCC1=C(C(=O)O)N2C(=O)[C@@H](NC(=O)[C@H](NC(=O)c3coc4c(O)c(O)ccc4c3=O)c3ccccc3)[C@H]2SC1 [Example 5, 7β-[D-2-(7,8-Dihydroxychromone-3-carboxamido)-2-phenylacetamido]-3-acetoxymethyl-3-cephem-4-carboxylic acid] | 3.13 | 12.5 | 0.2 | 1.56 | 1.56 | 1.56 |  |  |  |  |  |  | 

Source: patent US4285939A, “Cephalosporin derivatives, and antibacterial drugs containing the derivatives” (Eisai Co., Ltd., priority 1979, dated 1981)
